These are literature values, as cited in patent US8053002B2, “Medicinal herbal composition for treating infection” (priority 2005, dated 2011).

The target in series [1] is HIV-1 reverse transcriptase (Human immunodeficiency virus type 1 group M subtype B, UniProt P03366).
In series [2] the test system is herpes simplex virus (HSV-2).

As for `COCc1cc2cc(OC)c(OC)cc2c(-c2ccc3c(c2)OCO3)c1C=O` [phyllamycin B], the “effect on HIV-1 reverse transcriptase activity” value in series [1] is given as “inhibitory effect”.

On to `COc1cc2cc3c(c(-c4ccc5c(c4)OCO5)c2cc1OC)COC3=O` [retrojusticiden B], for which the “effect on HIV-1 reverse transcriptase activity” value in series [1] is recorded as “inhibitory effect”.

For the compound Prunellin, in the series on HIV-1, the “minimum inhibition concentration against HIV-1 in vitro” value is 2.2 µg/mL.

For `O=c1cc(-c2ccc(O)cc2)oc2cc(O)cc(O)c12` [5,7,4-truhydroxyflavone], the anti-influenza virus activity entry in the series with influenza virus was “anti-influenza virus activity”.

`O=C(O[C@@H]1O[C@@H]2COC(=O)c3cc(O)c(O)c(O)c3-c3c(cc(O)c(O)c3O)C(=O)O[C@H]2[C@H](OC(=O)c2cc(O)c(O)c(O)c2)[C@H]1OC(=O)c1cc(O)c(O)c(O)c1)c1cc(O)c(O)c(O)c1` [Eugeniin]: the “anti-herpes simplex virus (HSV-2) activity in vitro” value in series [2] was “exhibited anti-herpes simplex virus (HSV-2) activity”.

In the case of `COC(=O)c1cc(O)c(O)c(O)c1` [methyl gallate], the “anti-herpes simplex virus (HSV-2) activity in vitro” value in series [2] is recorded as “exhibited anti-herpes simplex virus (HSV-2) activity”.
